Like-named read-outs stand apart in the source and are kept apart here.
Tests used:
CCI-SN rats = assay type: in vivo, rat
Experimental: (§1) Male Sprague-Dawley rats (Charles River Laboratories, L'Arbresle, France), weighing 150-200 g on arrival, were used. Animals were maintained under controlled environmental conditions (22±1° C., 60% relative humidity, 12 h/12 h light/dark cycle, food and water ad libitum) starting from reception in the laboratory, for at least 1 week before any intervention or treatment and thereafter, until euthanasia.
Rats were anaesthetized as above and the common sciatic nerve was exposed. Using a dissection microscope (2× magnification), four chromic catgut (5-0) ligations were tied loosely with about 1 mm spacing, proximally to the sciatic trifurcation (Bennett and Xie, 1988). Finally, the skin and muscle were sewed using silk sutures (4-0). In sham-operated animals, the same surgery was performed, but the nerve was not ligated.
(§2) Tapentadol (1, 3 and 10 mg/kg i.p.), reboxetine (10 mg/kg i.p.), morphine (1 and 3 mg/kg s.c.) or their vehicle (0.9% NaCl) were injected acutely 14 days after surgery, when allodynia/hyperalgesia reached a plateau in both CCI-SN and CCI-ION rats. Behavioral tests were performed at various times for up to 4 h after injection. In drug association procedure, reboxetine or saline was administered 15 min before morphine or saline.
(§3) Subchronic treatment consisted of twice daily injections of tapentadol (10 mg/kg, i.p. at 10:00 am and 6:00 pm) or saline for 4 days starting on the 15th day after nerve ligation in both CCI-ION and CCI-SN rats. Animals were further injected with tapentadol (10 mg/kg i.p.) or saline at 10:00 am the following day (19th day post-surgery), and assessment of allodynia with von Frey filament tests (see below) was made at various times up to 4 hours after this injection. All rats were killed by decapitation 4 hours after the last injection for real-time qRT-PCR determinations of specific mRNAs in ganglia and central tissues (see below).
Before testing, each rat was habituated for 2 h as above, and mechanical sensitivity was then determined with a graded series of […] von Frey filaments, that produced a bending force of 6, 8, 10, 12, 15, 26, and 60 g, respectively. The stimuli were applied within the SN territory (lateral part of the hind paw sole). Each filament was tested three times on the nerve-injured side in increasing order starting with the filament producing the lowest force. As for the CCI-ION rats, the von Frey filaments were applied at least 3 seconds after the rat had returned to its initial resting state. The minimal force filament for which animals presented either a brisk paw withdrawal and/or an escape attempt in response to at least 2 out of the 3 stimulations allowed determination of the mechanical response threshold. The 60.00 g filament was chosen as the cutoff threshold to inhibit any tissue injury.
A—Two weeks after unilateral chronic constriction injury to the sciatic nerve, pressure threshold values (as g) to trigger nocifensive responses to von Frey filaments application onto the plantar surface of ipsilateral hindpaw were determined at various times after acute injection of tapentadol (1, 3 or 10 mg/kg, i.p.) or saline. B—On day 15 (D on abscissa) after nerve ligation, rats were treated subchronically with tapentadol (10 mg/kg, i.p., twice daily, at 10:00 AM and 6:00 PM) or saline for four days. On the following day (day 19 after surgery), both tapentadol- and saline-pretreated CCI-SN rats were injected with tapentadol (10 mg/kg, i.p.; 0 on abscissa) and then subjected to von Frey filaments' test applied to ipsilateral hindpaw for determination of pressure threshold values (as g) at various times thereafter.

CCI-ION rats = assay type: in vivo, rat
Experimental: as §1
Rats were anaesthetized with sodium pentobarbital (50 mg/kg i.p.). Unilateral CCI-ION was performed under direct visual control using a Zeiss microscope (10-25×). Briefly, the head was fixed in a Horsley-Clarke stereotaxic frame and a midline scalp incision was made, exposing skull and nasal bone. The edge of the orbit, formed by the maxillary, frontal, lacrimal, and zygomatic bones, was dissected free. The orbital contents were then gently deflected to give access to the infraorbital nerve which was dissected free at its most rostral extent in the orbital cavity, just caudal to the infraorbital foramen. Only 5 mm of the nerve could be freed, providing the space for placement of two chromic catgut (5-0) ligations tied loosely (with about 2 mm spacing) around it. […] Finally, scalp incision was closed using silk sutures (4-0). In sham-operated rats, the ION was exposed using the same procedure, but was not ligated.
as §2, §3
Rats were placed individually in small (35×20×15 cm) plastic cages for a 2 h habituation period. Before any stimulation session, rats freely explored the observation cage and the testing environments for 2 h. Then mechanical sensitivity was determined with a graded series of […] von Frey filaments (Bioseb, Bordeaux, France). The filaments produced a bending force of 0.40, 0.60, 1.00, 2.00, 4.00, 6.00, 8.00, 10.00 and 12.00 g, respectively. The stimuli were applied within the ION territory (vibrissae pad) three times on the nerve-injured side and then on the contralateral side for a total of 6 applications of each filament per rat, always beginning with the filament producing the lowest force. The von Frey filaments were applied at least 3 seconds after the rat had returned to its initial resting state. For each session, the complete series of von Frey filaments was tested in increasing force order. […] The latter responses represented the highest scores in the rank-ordered response scoring system initially described by Vos et al. (1994). Under our own conditions, the mechanical response threshold was determined as the minimal force filament causing at least one among these responses to at least 2 out of the 3 applications in vibrissae territory. […] To avoid nonspecific responses, only these rats were included in the study.

[1] = 10 mg/kg i.p. twice daily for four days, challenge 10 mg/kg i.p. day 19

CC[C@@H](c1cccc(O)c1)[C@@H](C)CN(C)C [Tapentadol, (−)-(1R,2R)-3-(3-dimethylamino-1-ethyl-2-methyl-propyl)-phenol]
anti-allodynic effect after subchronic pretreatment vs saline pretreatment (CCI-SN rats; [1]): produced the same anti-allodynic effects | increase in pressure threshold value (CCI-SN rats; acute 1 mg/kg i.p., first 15-30 min after injection, non significant): approximately 40% | pressure threshold values (anti-allodynic effect) (CCI-SN rats; acute 3 mg/kg i.p.): also increased pressure threshold values, but to a lower extent than 10 mg/kg i.p. | pressure threshold values (anti-allodynic effect) (CCI-SN rats; acute 10 mg/kg i.p., 15-30 min after administration): no longer differed from healthy control values | mechanical allodynia (CCI-SN rats; acute 10 mg/kg i.p., 90 min after injection): mechanical allodynia did not significantly differ from that measured in saline-treated CCI-SN rats | anti-allodynic effect after subchronic pretreatment vs saline pretreatment (CCI-ION rats; [1]): had the same characteristics (amplitude, duration) | increase in pressure threshold value compared to saline-treated CCI-ION rats (CCI-ION rats; acute 1 mg/kg i.p., first 45 min): up to 6 fold | duration of statistically significant anti-allodynic effect (CCI-ION rats; acute 10 mg/kg i.p.): at least two hours | pressure threshold values higher than those determined prior to injection (CCI-ION rats; acute 10 mg/kg i.p., 30-60 min after injection): 15-20 fold
